Laboratory results taken from patent publication US8361968B2 (Takeda Pharmaceutical Company Limited, priority 2002, dated 2013).
Where two headings read alike, the source gives them in different places. Square brackets hold non-standard residues; d marks the D form. Peptide text beside a SMILES is read from it. Arg(Me) = CNC(=N)NCCC[C@H](N)C(=O)O; 4Pal = N[C@@H](Cc1ccncc1)C(=O)O; azaGly = NNC(=O)O

How the values were obtained:
[1] = system: hOT7T175-expressed CHO cells; assay type: cell-based
Experimental: Assay for Cell Growth Inhibition Activity in hOT7T175-Expressed Cho Cells hOT7T175-Expressed CHO cells (hereinafter hOT7T175) were cultured in DMEM supplemented with 10% dialyzed FBS (hereinafter 10% dFBS/DMEM), which was used for the following assay. The hOT7T175 was suspended in 10% dFBS/DMEM at 10,000 cells/ml. The cells were plated on a 96 well plate at 100 μL each/well (1,000 cells/well), followed by culturing overnight at 37° C. in a 5% CO2 incubator. On the following day, the medium was removed and 90 μL of 10% dFBS/DMEM supplemented with 0.5% BSA (hereinafter, 0.5% BSA/10% dFBS/DMEM) was added. […] After 10 μL of Cell Counting Kit-8 solution (Dojin Chemical Laboratory) was added to each well, incubation was performed at 37° C. in a 5% CO2 incubator for 4 hours and absorbance was measured at 450 nm.

hOT7T175 [2] = molecular target: T1, hOT7T175 (Homo sapiens, UniProt Q969F8, L364H); experiment: Intracellular Ca ion level-increasing activity using FLIPR in hOT7T175/CHO; assay type: cell-based; design: expressed in transfected cells; host or cells: CHO/dhfr- cells, obtained from ATCC; details: relative, Metastin (1-54) = 1
[3] = Stability of compound in blood (mouse serum, half life); details: female, Balb/c
Experimental: (§1) Blood was drawn from Balb/c mice (female) of 8 weeks old, settled at 37° C. for 30 minutes and centrifuged at 13000 rpm for 10 minutes to give the serum as the supernatant. The serum thus obtained was frozen-stored at −80° C.
(§2) The stability test was performed by addition of 5 nmol of Compound (5 μL of aqueous solution) to 45 μL of serum and then settlement of the mixture at 37° C. The settlement was made at 3 points of time, including 2, 10 and 30 minutes. The sample after the settlement was boiled for 3 minutes and cooled on an ice bath. After 200 μL of acetonitrile/water (3/1) was added to the sample, the mixture was ultrasonicated for 5 minutes and then centrifuged at 5000 rpm for 1 minute. After 150 μL of the supernatant was diluted with 250 μL of distilled water, insoluble matters were removed by filtration through a filter having a pore size of 0.45 μm and 200 μL of the filtrate was applied on HPLC (220 nm) to determine the peak area of Compound. A ratio of the peak area to the area when Compound was treated for 0 minute under the same conditions was calculated as a mean value in 4 respective runs to determine the residual ratio. Next, by taking the calculated residual ratio on the ordinate and the time on the abscissa, a graph was prepared and approximated by an exponential function.
(§3) The preparative HPLC used was the LC-VP series manufactured by Shimadzu Corporation and Wakosil-II 5C18 HG (4.6 mm×100 mm) manufactured by Wako Pure Chemical Industries, Ltd. was used as the column. Eluant A (0.1% TFA-containing water) and eluant B (0.1% TFA-containing acetonitrile) were used as eluants. Analysis was performed by linear density gradient elution (25 minutes) at a flow rate of 1.0 ml/min. using eluants A/B: 100/0-0/50.

in vitro = details: female, Balb/c, mouse, serum
Experimental: as §1, §2, §3

hOT7T175 [4] = molecular target: T1, hOT7T175; experiment: hOT7T175 receptor binding activity: binding inhibition of Cy-5-labeled metastin (40-54) on hOT7T175-expressed CHO cells; design: expressed in transfected cells; host or cells: CHO cells
[5] = hOT7T175-expressed CHO cells, 3 days culture, Cell Counting Kit-8, read-out: IC50 (M), cell growth inhibition activity

T1 sequence (Q969F8 whole entry L364H): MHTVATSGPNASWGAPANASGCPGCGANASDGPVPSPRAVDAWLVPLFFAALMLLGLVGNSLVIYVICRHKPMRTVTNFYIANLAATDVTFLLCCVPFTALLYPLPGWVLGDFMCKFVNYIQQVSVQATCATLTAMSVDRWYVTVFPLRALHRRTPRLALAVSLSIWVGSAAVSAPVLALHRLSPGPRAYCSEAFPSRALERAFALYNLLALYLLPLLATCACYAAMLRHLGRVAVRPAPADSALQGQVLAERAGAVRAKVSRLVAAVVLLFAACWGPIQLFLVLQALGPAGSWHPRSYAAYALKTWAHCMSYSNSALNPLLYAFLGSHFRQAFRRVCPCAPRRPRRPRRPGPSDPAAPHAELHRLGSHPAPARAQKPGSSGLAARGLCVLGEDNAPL

Structure (SMILES)	IC50 [1] [M]	IC50 [1, 5] [M]	Specific Activity (intracellular Ca ion level-increasing activity) (hOT7T175 [2])	half-life at 100 µM [3] [min]	half-life at 100 µM (in vitro) [min]	IC50 (hOT7T175 [4]) [nM]
CC[C@H](C)[C@H](NC(=O)[C@H](CCC(N)=O)NC(=O)[C@H](CCCNC(=N)N)NC(=O)[C@H](CO)NC(=O)[C@H](Cc1c[nH]cn1)NC(=O)[C@@H]1CCCN1C(=O)[C@H](C)NC(=O)[C@H](CO)NC(=O)[C@H](CC(C)C)NC(=O)CNC(=O)[C@@H]1CCCN1C(=O)[C@H](CCC(N)=O)NC(=O)[C@H](CCC(N)=O)NC(=O)[C@H](CCCNC(=N)N)NC(=O)[C@H](CO)NC(=O)CNC(=O)[C@H](CO)NC(=O)[C@H](CO)NC(=O)[C@H](CCC(=O)O)NC(=O)[C@@H]1CCCN1C(=O)[C@@H]1CCCN1C(=O)[C@@H]1CCCN1C(=O)[C@H](CO)NC(=O)[C@H](CC(C)C)NC(=O)[C@H](CO)NC(=O)[C@@H](NC(=O)CN)[C@@H](C)O)C(=O)N1CCC[C@H]1C(=O)N[C@@H](C)C(=O)N1CCC[C@H]1C(=O)N[C@@H](CCC(N)=O)C(=O)NCC(=O)N[C@@H](C)C(=O)N[C@H](C(=O)N[C@@H](CC(C)C)C(=O)N[C@H](C(=O)N[C@@H](CCC(N)=O)C(=O)N[C@@H](CCCNC(=N)N)C(=O)N[C@@H](CCC(=O)O)C(=O)N[C@@H](CCCCN)C(=O)N[C@@H](CC(=O)O)C(=O)N[C@@H](CC(C)C)C(=O)N1CCC[C@H]1C(=O)N[C@@H](CC(N)=O)C(=O)N[C@@H](Cc1ccc(O)cc1)C(=O)N[C@@H](CC(N)=O)C(=O)N[C@@H](Cc1c[nH]c2ccccc12)C(=O)N[C@@H](CC(N)=O)C(=O)N[C@@H](CO)C(=O)N[C@@H](Cc1ccccc1)C(=O)NCC(=O)N[C@@H](CC(C)C)C(=O)N[C@@H](CCCNC(=N)N)C(=O)N[C@@H](Cc1ccccc1)C(N)=O)C(C)C)C(C)C [1-54]	2.12e-07					
CC(C)C[C@H](NC(=O)CNC(=O)[C@H](Cc1ccccc1)NC(=O)[C@H](CO)NC(=O)[C@H](CC(N)=O)NC(=O)[C@H](Cc1c[nH]c2ccccc12)NC(=O)[C@H](CC(N)=O)NC(=O)[C@@H](N)Cc1ccc(O)cc1)C(=O)N[C@@H](CCCNC(=N)N)C(=O)N[C@@H](Cc1ccccc1)C(N)=O [45-54]		8.51e-06				
CC(C)C[C@H](NC(=O)CNC(=O)[C@H](Cc1ccccc1)NC(=O)[C@H](CO)NC(=O)[C@H](CC(N)=O)NC(=O)[C@H](Cc1c[nH]c2ccccc12)NC(=O)[C@H](CC(N)=O)NC(=O)[C@@H](N)Cc1ccc(O)cc1)C(=O)N[C@@H](CCCNC(=N)N)C(=O)N[C@@H](Cc1ccccc1)C(N)=O [Compound No. 3, reference compound]			10	0.6		
CC(C)C[C@H](NC(=O)CNC(=O)[C@H](Cc1ccccc1)NC(=O)[C@H](CO)NC(=O)[C@H](CC(N)=O)NC(=O)[C@H](Cc1c[nH]c2ccccc12)NC(=O)[C@H](CC(N)=O)NC(=O)[C@H](N)Cc1ccc(O)cc1)C(=O)N[C@@H](CCCNC(=N)N)C(=O)N[C@@H](Cc1ccccc1)C(N)=O [Compound No. 42]			30	0.7		
CC(C)C[C@H](NC(=O)CNC(=O)[C@H](Cc1ccccc1)NC(=O)[C@H](CO)NC(=O)[C@H](CC(N)=O)NC(=O)[C@H](Cc1c[nH]c2ccccc12)NC(=O)[C@H](CC(N)=O)NC(=O)[C@@H](N)Cc1ccc(O)cc1)C(=O)N[C@@H](CCCNC(=N)N)C(=O)N[C@@H](Cc1c[nH]c2ccccc12)C(N)=O [Compound No. 134] (H-YNWNSFGLRW-NH2)			30		2.4	110
CNC(=N)NCCC[C@H](NC(=O)[C@H](CC(C)C)NC(=O)CNC(=O)[C@H](Cc1ccccc1)NC(=O)[C@H](CO)NC(=O)[C@H](CC(N)=O)NC(=O)[C@H](Cc1c[nH]c2ccccc12)NC(=O)[C@H](CC(N)=O)NC(=O)[C@H](N)Cc1ccc(O)cc1)C(=O)N[C@@H](Cc1ccccc1)C(N)=O [Compound No. 141]	8.7e-08		10		8.7	
CNC(=N)NCCC[C@H](NC(=O)[C@H](CC(C)C)NC(=O)NNC(=O)[C@H](Cc1ccccc1)NC(=O)[C@H](CO)NC(=O)[C@H](CC(N)=O)NC(=O)[C@H](Cc1c[nH]c2ccccc12)NC(=O)[C@H](CC(N)=O)NC(=O)[C@H](N)Cc1ccc(O)cc1)C(=O)N[C@@H](Cc1ccccc1)C(N)=O [Compound No. 232, D-Tyr-Asn-Trp-Asn-Ser-Phe-AzaGly-Leu-Arg(Me)-Phe-NH2]	9.67e-09		3		28.2	49
CNC(=N)NCCC[C@H](NC(=O)[C@H](CC(C)C)NC(=O)NNC(=O)[C@H](Cc1ccccc1)NC(=O)[C@H](CO)NC(=O)[C@H](CC(N)=O)NC(=O)[C@H](Cc1ccncc1)NC(=O)[C@H](CC(N)=O)NC(=O)[C@H](N)Cc1ccc(O)cc1)C(=O)N[C@@H](Cc1ccccc1)C(N)=O [Compound No. 286, D-Tyr-Asn-Pya(4)-Asn-Ser-Phe-AzaGly-Leu-Arg(Me)-Phe-NH2] (H-[dY]N[4Pal]NSF[azaGly]L[Arg(Me)]F-NH2)		1.83e-08	2			
CNC(=N)NCCC[C@H](NC(=O)[C@H](CC(C)C)NC(=O)NNC(=O)[C@H](Cc1ccccc1)NC(=O)[C@H](CO)NC(=O)[C@H](CC(N)=O)NC(=O)[C@H](Cc1ccncc1)NC(=O)[C@@H](CC(N)=O)NC(=O)[C@H](N)Cc1ccc(O)cc1)C(=O)N[C@@H](Cc1ccccc1)C(N)=O [Compound No. 303, D-Tyr-D-Asn-Pya(4)-Asn-Ser-Phe-AzaGly-Leu-Arg(Me)-Phe-NH2] (H-[dY][dN][4Pal]NSF[azaGly]L[Arg(Me)]F-NH2)		4.12e-08	5			
CNC(=N)NCCC[C@H](NC(=O)[C@H](CC(C)C)NC(=O)CC(=O)N[C@H](Cc1ccccc1)NC(=O)[C@H](CO)NC(=O)[C@H](CC(N)=O)NC(=O)[C@H](Cc1c[nH]c2ccccc12)NC(=O)[C@H](CC(N)=O)NC(=O)[C@H](N)Cc1ccc(O)cc1)C(=O)N[C@@H](Cc1ccccc1)C(N)=O [Compound No. 319, D-Tyr-Asn-Trp-Asn-Ser-PheΨ(NHCO)Gly-Leu-Arg(Me)-Phe-NH2]			3	33		
